{"source": "ChEMBL document CHEMBL4622956", "about": "“Amide derivatives of Gallic acid: Design, synthesis and evaluation of inhibitory activities against in vitro α-synuclein aggregation” (Bioorg Med Chem, 2020)", "target": "Alpha-synuclein (Homo sapiens, UniProt P37840)", "experiment": "Inhibition of alpha-synuclein (unknown origin) aggregation incubated for 3 days by thioflavin T based fluorescence assay"}
{"smiles": "O=C(O)c1cc(O)c(O)c(O)c1", "note": "[GALLIC ACID]", "values": [{"measurement": "IC50", "result": 4.43, "unit": "µM"}]}
